Test results published in US12678424B2, “Method for preventing and/or treating systemic inflammation” (THE BOARD OF TRUSTEES OF THE LELAND STANFORD JUNIOR …, priority 2015, dated 2026).

Columns and labels:
Format in all cases: in vivo, mice (C57BL6)
microglia [1] = experiment: Flow cytometry of brain microglia for Slc2al expression and 2-NBDG glucose uptake in older mice; conditions: 25 mg/kg oral 3 times a week for 15 weeks from 37 weeks of age, vs vehicle-treated older mice, p<0.05
Description: All animal studies were conducted under protocols approved by APLAC from Stanford University. Older and young animals on C57BL6 background were purchased from Taconic. Older animals are defined as those above 36 weeks of age, when physiological aging process accelerates in mice, while young counterparts are 20 weeks of age. Data are presented as mean±SEM. Two-tailed Student's t-test and two-way ANOVA were used for statistical analyses. A p value of <0.05 is considered to be statistically significant. Older animals were orally treated 3 times a week for 15 weeks with 0.5% methylcellulose (vehicle) or ZLN005 (Sigma) at 25 mg/kg in vehicle, starting at 37 weeks of age. Treated older animals (n=6), non-treated older animals (n=6), and young animals (20 weeks old, n=6) were sacrificed after drug treatment and their brain tissues collected. PBS-perfused brain tissues of sacrificed animals were digested with Collagenase I and processed for flow cytometry (Ginhoux et al Science, 330:841-5, 2010). Brain microglia were phenotyped with 2-NBDG (2-(N-(7-nitrobenz-2-oxa-1,3-diazol-4-yl)amino)-2-deoxyglucose, Invitrogen) and anti-Slc2al antibody (RnD) for flow cytometric acquisition (LSRII, BD) and analysis (FlowJo). The results are summarized in FIG. 1: Y-axis represents % of microglia that either express glucose transporter Slc2al or have taken up glucose fluorescent analog 2-NBDG. […]

microglia [2] = experiment: Flow cytometry of brain microglia for CCL2 and TNF-α production in older mice; conditions: 25 mg/kg oral 3 times a week for 15 weeks from 37 weeks of age, vs vehicle-treated older mice
Description: (§1) All animal studies were conducted under protocols approved by APLAC from Stanford University. Older and young animals on C57BL6 background were purchased from Taconic. Older animals are defined as those above 36 weeks of age, when physiological aging process accelerates in mice, while young counterparts are 20 weeks of age. Data are presented as mean±SEM. Two-tailed Student's t-test and two-way ANOVA were used for statistical analyses. A p value of <0.05 is considered to be statistically significant. Older animals were orally treated 3 times a week for 15 weeks with 0.5% methylcellulose (vehicle) or ZLN005 (Sigma) at 25 mg/kg in vehicle, starting at 37 weeks of age. Treated older animals (n=6), non-treated older animals or aged animals (n=6), and young animals (20 weeks old, n=6) were sacrificed after drug treatment and their brain tissues were collected. PBS-perfused brain tissues of sacrificed animals were digested with Collagenase I and processed for flow cytometry (Ginhoux et al Science. 330:841-5.2010). Brain microglia were phenotyped with fluorochrome-labeled antibodies to CCL2 and TNF-α (Biolegend) for flow cytometric acquisition (LSRII. BD) and analysis (FlowJo). The results are summarized in FIG. 2: Y-axis represents % of microglia that express CCL2 or TNF-α. ANOVA was used for statistical analysis. […]

TNF-α = experiment: Serum TNF-α by ELISA in older mice (systemic inflammation); conditions: 25 mg/kg oral 3 times a week for 15 weeks, vs vehicle-treated older mice, p<0.05
Description: as §1, with “TNF-α levels” for “The results are summarized”, “serum” for “FIG. 2: Y-axis represents %”, “young mice, vehicle-treated older mice, and ZLN-treated older mice (from Example 2) were measured by ELISA to determine TNF-α levels which indicated systemic inflammation.” for “microglia that express CCL2 or TNF-α. ANOVA was used for statistical analysis.”

[3] = Marble burying assay in older mice; conditions: older mice at 52 weeks of age, 25 mg/kg oral 3 times a week for 15 weeks, 12 marbles, 30 minutes, vs vehicle-treated older mice, p<0.05
Description: All animal studies were conducted under protocols approved by APLAC from Stanford University. Older and young animals on C57BL6 background were purchased from Taconic. Older animals are defined as those above 36 weeks of age, when physiological aging process accelerates in mice, while young counterparts are 20 weeks of age. Data are presented as mean±SEM. Two-tailed Student's t-test and two-way ANOVA were used for statistical analyses. A p value of <0.05 is considered to be statistically significant.
Animals were orally treated 3 times a week for 15 weeks with 0.5% methylcellulose (vehicle) or ZLN005 (Sigma) at 25 mg/kg in vehicle, starting at 37 weeks of age. At 52 weeks of age, the older animals were subjected to a marble burying assay, a behavioral test of anxiety (Dekeyne A. Therapie. 60:477-84.2005). Each animal was given 12 marbles on top of bedding in individual cage and allowed to run free in the cage for 30 minutes. After this period of time, each buried marble was individually assigned a number based on its degree of being buried (1=90-100% hidden, 0.75=60-90% hidden, 0.5=30-60% hidden, 0=below 30% hidden), and then the sum of the numbers of 12 marbles buried by each mouse is calculated as the marble burying score of the mouse. […] Unpaired t-test was used for statistical analysis.

CC(C)(C)c1ccc(-c2nc3ccccc3[nH]2)cc1 [ZLN005, 2-(4-tert-Butylphenyl)-1H-benzimidazole]
% of microglia that express glucose transporter Slc2al (microglia [1]): decreased
% of microglia that have taken up glucose fluorescent analog 2-NBDG (glucose uptake) (microglia [1]): decreased
% of microglia that express CCL2 (microglia [2]; p<0.01): decreased
% of microglia that express TNF-α (microglia [2]; p<0.05): decreased
concentration of TNF-α in serum (TNF-α): decreased
marble burying score [3]: reduced the anxiety phenotype
